Laboratory results from US6559166B1, “Phenylsulphonyl derivatives as 5-HT receptor ligands” (Merck Sharp & Dohme Ltd., priority 1999, dated 2003).

Legend:
[1] = molecular target: human dopamine D2 receptor (Homo sapiens, UniProt P14416); details: cited from earlier work
human dopamine D2 receptor, sequence (P14416 whole entry): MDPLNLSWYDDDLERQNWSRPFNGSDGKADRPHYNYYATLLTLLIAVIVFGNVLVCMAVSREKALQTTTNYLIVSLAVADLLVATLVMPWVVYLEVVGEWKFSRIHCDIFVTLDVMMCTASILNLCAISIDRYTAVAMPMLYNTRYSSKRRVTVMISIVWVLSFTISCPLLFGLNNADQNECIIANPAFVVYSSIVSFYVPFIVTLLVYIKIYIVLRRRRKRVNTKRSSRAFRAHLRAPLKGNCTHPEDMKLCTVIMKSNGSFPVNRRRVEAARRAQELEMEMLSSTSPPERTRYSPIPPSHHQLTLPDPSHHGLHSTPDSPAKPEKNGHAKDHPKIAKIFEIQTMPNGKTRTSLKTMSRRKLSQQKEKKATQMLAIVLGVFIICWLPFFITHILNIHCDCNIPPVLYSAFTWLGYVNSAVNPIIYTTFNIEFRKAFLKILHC

melting point [°C]	Compound	activity at the human dopamine D2 receptor [1]
168 to 169	O=S(=O)(c1ccc(Cn2cnnn2)cc1)C1CCN(CCc2ccc(F)cc2F)CC1 [Example 12, 1-[2-(2,4-Difluorophenyl)ethyl]-4-[4-(tetrazol-1-ylmethyl)phenylsulphonyl]piperidine]	
	COc1cccc(C(O)C2CCN(CCc3ccc(F)cc3)CC2)c1OC (stereo not drawn) [MDL-100,907, (+)-α-(2,3-dimethoxyphenyl)-1-[2-(4-fluorophenyl)ethyl]-4-piperidinemethanol]	essentially devoid of activity
